Tests used:
[1] = test system: C2C12 cells; experiment: Myodifferentiation: root canal formation and fusion index (Giemsa staining); assay type: cell-based, mouse; settings: for increase in fusion index compared to untreated cells: C2C12, differentiation medium with peptide; for root canal formation compared to untreated cells: C2C12, differentiation medium
Protocol: When C2C12 cells were 70% grown, media were replaced with myodifferentiation medium added with MSTN protein (1 ng), Ac-MIF2-NH2 (1000 nM), and Ac-MIF2-NH2 (1000 nM)+MSTN protein (1 ng) from proliferation medium, followed by culture for 3 days.
When the cells grew more than 70% for differentiation of myoblasts into myocytes, they were cultured for 3 days by replacing with a differentiation medium (DMEM+2% FBS+1% P/S). The medium was replaced once daily, and the cells were cultured at 37° C.
The cell medium was removed, and the cells were washed with PBS. After washing, a methanol: PBS reagent in a 1:1 volume ratio was treated, followed by fixation for 2 minutes. Additionally, after a methanol: PBS reagent in a 2:1 volume ratio was added, fixation was followed for additional 2 minutes. After 2 minutes, 0.04% Giemsa reagent was added, and then the cells were left for 30 minutes, washed with PBS after 30 minutes, and observed under a microscope, with 3 photographs taken for each cell (300×). In the photographs taken, the number of fused nuclei in the root canal cells was counted, the number of nuclei of total cells was counted, and the number of fused nuclei was divided by the number of nuclei of the total cells to obtain the % value.

[2] = test system: gastrocnemius muscle of C57BL/6 mice; experiment: Myoregeneration after Ac-MIF2-NH2 injection and cardiotoxin (CTX) muscle injury; assay type: in vivo, mouse
Description: The male C57BL/6 mice were purchased from Dae Han Bio Link Co., Ltd., four of which per cage were kept in a temperature-controlled room with a 12-hour light cycle. The animals were fed with a standard rodent diet containing 4.0% (wt/wt) total fat (Rodent NIH-31 Open Formula Auto; Zeigler Bros., Inc., Gardners, PA, USA) and water. All experiments involving animals complied with the guidelines (YUMC-AEC2015-006) issued by the Animal Control Committee of Youngnam University's Animal Research Institute. The MSTN knock-out mouse was provided by a laboratory at Seoul National University. Normal, MSTN+/−(heterozygous), and MSTN−/−(homozygous) adipose tissues were fixed by collecting from 6-week-old mice and stored at −80° C. until required for analysis.
Muscle tissues containing paraffin was subjected to deparaffinization with xylene and ethanol and hydration, respectively, and the tissue was soaked in 0.3% hydrogen peroxide water (H2O2)/methanol for 15 minutes to stop endogenous peroxidase activity. Then, tissues were stained with hematoxylin/eosin for morphological observation or reacted with 1% normal goat serum at room temperature for 1 hour to block a reaction with non-specific antibodies, followed by a reaction with the primary antibody (1:50) at 4° C. for over 16 hours. After 16 hours, washing was performed 3 times with PBS, followed by a reaction with secondary antibody (1:100) with HRP conjugated at room temperature for 1 hour. Horse radish peroxidase-conjugated streptavidin was added to detect the expression of the protein, followed by observation under a microscope.
In order to observe the myoregeneration effect following MIF peptide injection, mice were injected with Ac-MIF2-NH2 peptide and injected/uninjected with cardiotoxin (hereinafter referred to as CTX) into the muscle, followed by observation of the morphology and regeneration of the muscle. A day after C57BL/6 mice were injected with Ac-MIF2-NH2 peptide (1.125 mM), […] cardiotoxin was injected into the gastrocnemius. Muscle tissues were sampled 7 days after CTX injection.
Paraffin-embedded muscle sections were deparaffinized using xylene, rehydrated using a concentration gradient of ethanol, stained with hematoxylin and eosin, observed under an optical microscope, magnified at 400× scale, and photographed, followed by measurement of the diameter of muscle fibers using Image J software.

[3] = test system: C2C12 cells; experiment: C2C12 myoblast proliferation (MTT method); assay type: cell-based, mouse; settings: for increase in cell proliferation compared to cells without peptide treatment: C2C12, peptide 1000 nM, 1 day, MTT, FIG. 4
Protocol: C2C12 cells, a mouse myoblast line, were cultured in Dulbecco's Modified Eagle's Medium (DMEM)+10% fetal bovine serum (FBS)+1% penicillin/streptomycin (P/S). To validate the effect of MIF peptide, C2C12 cells (2×10^3 cells/ml) were placed in a 12 well cell culture dish and attached for 24 hours, and MIF2 or Ac-MIF2-NH2 peptide (1000 nM) was treated for 1 day to observe cell proliferation by MTT method. The medium was replaced every 2 days, and the cells were cultured at 37° C.
(§1) To validate cell proliferation, the culture medium of the cells was removed, the cells were washed with DMEM, 500 μl of MTT reagent (0.5 mg/ml) dissolved in phosphate buffered saline (PBS) was added to each well, and the cells were left at 37° C. for 1 hour. The reaction solution was removed, and 1000 μl of DMSO was added to each well. Purple formazan crystals were completely dissolved in DMSO, and the absorbance was measured at 540 nm.

[4] = test system: C2C12 cells; experiment: Scratch experiment, degree of cell recovery; assay type: cell-based, mouse; settings: C2C12 100% grown, 1000 nM peptide, 1 day
Protocol: When the C2C12 cells were 100% grown, cells were scratches on the surface, treated with 1000 nM MIF2 or Ac-MIF2-NH2 peptides, and cultured for 1 day, followed by observation for a degree of cell recovery.

[5] = test system: C2C12 cells; experiment: Expression of myodifferentiation-related factors (real-time PCR, Western blot, immunocytochemistry); assay type: cell-based, mouse
Protocol: (§2) After adding 1 ml of TRIzol™ reagent, the cells were crushed using a sonicator. After centrifugation of the crushed sample (12,000 rpm, 10 min, 4° C.), the supernatant was transferred to a new tube, added with 200 μl of chloroform, and left at room temperature for 10 minutes. After 10 minutes, centrifugation (12,000 rpm, 10 min, 4° C.) was performed, yielded a transparent supernatant. Next, 500 μl of isopropanol was added, the mixture was left for 10 minutes, and centrifugation was performed to obtain RNA pellets. After washing by adding 70% ethanol (distilled water treated with ethanol+diethylpyrocarbonate (hereinafter referred to as DEPC)) to the RNA pellets, complete removal and drying were followed. The dried transparent RNA was added with DEPC-treated distilled water and then stored at −80° C. Total RNA volume was measured by nanodrop, and the 18s and 28s bands were detected in 1.2% agarose gel. cDNA was synthesized with 2 μg of total RNA, random hexamer primers, and reverse transcriptase (25° C.: 10 min, 37° C.: 120 min, 85° C.: 5 min).
Real-time PCR (RT-PCR) was performed for detecting gene expression. For observation of real-time gene expression, gene expression was analyzed using the Power SYBR Green PCR Master Mix, which includes fluorescent materials of SYBR green (7500 Real-time PCR system). The PCR primer was designed with Primer 3 software (http://frodo.wi.mit.edu) according to the nucleotide sequence secured from NCBI GenBank. PCR was performed 40 times at 95° C. for 10 minutes, again at 95° C. for 33 seconds, at gene primer temperature (tm) for 33 seconds, and at 72° C. for 33 seconds. Gene expression values were analyzed through the analysis of c(t) values obtained through real-time PCR analysis (fold change 2-ΔΔCt formula). Setting the gene expression value of the untreated cells to 1, the gene expression value of the treated cells was calculated. In the analysis of gene c(t) values, normalization was conducted with the glyceraldehyde-3-phosphate dehydrogenase (GAPDH).
The medium of cultured C2C12 cells was removed and washed once with PBS. The washed cells were treated with 4% formaldehyde (Sigma), fixed for 15 minutes, then washed using PBS, added with 0.2% trypton X-100 (Sigma), and left for 5 minutes. After washing again using PBS, adding 1% normal goat serum, and leaving for 30 minutes, the primary antibody (MYOD, myogenin (MYOG): myosin light chain (MYL2); 1:50) was added to carry out a reaction at 4° C. for 14 hours. The antibodies were removed, washing was performed 3 times with PBS for 10 minutes, and then the cells were left with secondary antibody (Alexa Fluor 488 goat anti-Mouse & rabbit SFX kit t) for 1 hour. After 1 hour, the antibodies were removed, washing was performed with PBS for 10 minutes, the nuclei were stained with 4′,6-diamidino-2-phenylindol (DAPI), and the expression of the proteins was observed using fluorescence microscopy.
(1) The medium of cultured C2C12 cells was removed, followed by washing with PBS. After adding LIPA buffer and protease inhibitor to the washed cells, the proteins included in the supernatant were collected after centrifugation for 10 minutes at 12000 rpm. 40 μg of the extracted proteins were subjected to electrophoresis in 8 to 10% acrylamide gel and then transferred to a polyvinylidene fluoride (PVDF) membrane (Milipore). These were blocked with 3% skim milk or bovine serum albumin (BSA) at room temperature for 1 hour. Afterwards, primary antibody diluted in 1% skim milk or BSA (Pax7; 1:500, MYOD; 1:500, MYOG; 1:400, MYL2; 1:1000, MYH; 1:500, MSTN; 1:1000, β-actin; 1:1000, MuRF1; 1:400, and Atrogin; 1:1:400) was added and reacted at 4° C. for over 16 hours. After 16 hours, cells were washed three times with TBST (Tris-buffered saline with Tween 20) and reacted with secondary antibody with horseradish peroxidase (HRP) conjugated at room temperature for 1 hour. […]

[6] = test system: 3T3L1 cells; experiment: 3T3L1 cell proliferation (MTT method); assay type: cell-based, mouse; settings: 3T3L1, peptide 1000 nM, 2 days, FIG. 13A
Protocol: 3T3L1 cells, mouse fibroblasts, were cultured in Dulbecco's Modified Eagle's Medium (DMEM)+10% fetal bovine serum (FBS)+1% penicillin/streptomycin (P/S). To validate the effect of MIF peptide, 3T3L1 cells (2×10^3 cells/ml) were placed in a 12-well cell culture dish, attached for 24 hours, and treated with MIF peptide (1000 nM) for 2 days, followed by observation of cell proliferation by MTT method. The medium was replaced once every 2 days, and the cells were cultured at 37° C.
as §1

[7] = test system: 3T3L1 cells; experiment: Expression of FMOD, MSTN and lipogenesis-related factors in 3T3L1 cells (real-time PCR, Western blot); assay type: cell-based, mouse; settings: 3T3L1, compared to untreated cells, FIG. 13C
Protocol: as §2, with “After washing by adding 70% ethanol (distilled water treated with ethanol+diethylpyrocarbonate (hereinafter referred to as DEPC)) to the RNA pellets, complete removal and drying were followed. The dried transparent RNA was added with DEPC-treated distilled water and then stored at −80° C.” left out
Real-time PCR (RT-PCR) was performed for detecting gene expression. For observation of real-time gene expression, gene expression was analyzed using the Power SYBR Green PCR Master Mix, which includes fluorescent materials of SYBR green (7500 Real-time PCR system). […] Gene expression values were analyzed through the analysis of c(t) values obtained through real-time PCR analysis (fold change 2-ΔΔCt formula). Setting the gene expression value of the untreated cells to 1, the gene expression value of the treated cells was calculated. […]

[8] = test system: 3T3L1 cells; experiment: Adipodifferentiation of 3T3L1 cells (Oil Red O staining); assay type: cell-based, mouse; settings: 3T3L1, adipocyte differentiation medium, 4 days, FIG. 13B
Protocol: For differentiation of 3T3L1 cells into adipocytes, when the cells grew about 100% or more, they were replaced with differentiation medium (DMEM+10% FBS+1% P/S+10 μg/ml insulin+1 μM dexametazone+0.5 μM IBMX (3-isobutyl-1-methylxanthine)) and cultured for 2 days. After 2 days, MIF peptide was treated in a medium including 10 μg/ml insulin to induce cell differentiation.
3T3L1 cells were treated with peptides and differentiated for 4 days, then the medium was removed, and the cells were washed with normal saline, treated with 10% formaldehyde, and left for 10 minutes. After 10 minutes, Oil-red O staining agents (6 ([…] Oil-red O reagent+1 ml 100% isopropanol): 4 (distilled water)) were treated and left for 1 hour. After 1 hour, cells were washed with normal saline and then observed under a microscope. To measure the Oil-red O stained in the intracellularly differentiated cells, 100% isopropanol was added and collected, followed by measurement at 510 nm.

[9] = injected muscle, 7 days after CTX, FIG. 10B
[10] = C2C12 differentiation, versus control
[11] = C2C12 myodifferentiation, FIG. 8
[12] = C2C12 myodifferentiation, FIG. 6

Ac-VDFEAGDWFW-NH2 [Ac-MIF2-NH2, MIF2 peptide with acetylated N-terminus and amidated C-terminus]
increase in fusion index compared to untreated cells ([1]; 3 days): 14%
root canal formation compared to untreated cells ([1]; 3 days): increased
fusion index compared to untreated cells ([1]; C2C12, myodifferentiation medium, 3 days, FIG. 9): increased
muscle weight compared to muscle without injection ([2]; 7 days after CTX injection): no significant difference
diameter of the muscle fibers compared to muscles without injection ([2]; 7 days after CTX, FIG. 10C): increased
muscle weight ([2]; CTX + Ac-MIF2-NH2, 7 days after CTX injection): 0.147 ± 0.163 g
mRNA expression of Pax7, MYOD, MYOG, MYL2, and MYH in muscle ([2]; injected muscle, 7 days after CTX, FIG. 10A): significantly increased
MSTN protein expression in muscle [2, 9]: decreased
protein expression of Pax7, MYOD, MYOG, MYL2, and MYH in muscle [2, 9]: increased
increase in cell proliferation compared to cells without peptide treatment [3]: 33%
increase in scratch recovery degree compared to untreated cells [4]: 26%
MSTN protein expression [5, 10]: reduced
mRNA and protein expression of MYOD, MYOG, MYL2, and MYH [5, 10]: increased
ACVRIIB protein expression [5, 11]: reduced
gene expression of Atrogin1 and MuRF1 [5, 11]: reduced
decrease in proliferation compared to cells without peptide treatment [6]: 10%
expression of FMOD; MSTN; and lipogenesis-related mRNAs and proteins (CD36, CD163, and PPARγ) [7]: decreased
decrease in fat accumulation (Oil-red O intensity) compared to cells without peptide treatment [8]: 9%

VDFEAGDWFW [MIF2]
increase in fusion index compared to untreated cells ([1]; 3 days): 12%
increase in cell proliferation compared to cells without peptide treatment [3]: 6%
increase in scratch recovery degree compared to untreated cells [4]: 22%
expression of MSTN mRNA and proteins [5, 10]: did not show any significant differences
mRNA and protein expression of MYOD, MYOG, MYL2, and MYH [5, 10]: increased
expression of ACVRIIB mRNA [5, 12]: decreased
expression of MuRF1 and ACVRIIB proteins [5, 12]: decreased

MSTN protein: myostatin protein that inhibits the proliferation and differentiation of myoblasts [reference compound]
differentiation of cells compared to untreated cells ([1]; C2C12, MSTN protein in differentiation medium, FIG. 3): reduced
root canal formation compared to untreated cells ([1]; 3 days): reduced
proliferation of cells compared to untreated cells ([3]; C2C12, MSTN protein in proliferation medium, FIG. 3): reduced

From patent publication US20250082720A1, “NEW PEPTIDE AND USES THEREOF” (Neo Cremar Co., Ltd., priority 2021, published 2025)
